Assay results as given in PubChem BioAssay AID1918993 (Molecular Pharmacology Branch, DTP, NCI, 2023).

Test system: 233499-124-R-J3-PDC complex spheroid growth
Experiment: Anticancer human tumor 233499-124-R-J3-PDC patient-derived colon adenocarcinoma cell line growth inhibition [AhR]
Conditions: for IC50: curve of first compound; for viability, T/C: stronger effect = lower value
Outline: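 Agents were dosed in half-log steps down from roughly clinical Cmax, or from 10 microM where Cmax was unknown, alone and with AhR antagonists. Read-out: percent test/control growth of tumor spheroids containing HUVEC and MSC stromal cells.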

[1] = second compound 0.1 µM, first compound 0.0316 µM
[2] = second compound 0.1 µM, first compound 0.1 µM
[3] = second compound 0.1 µM, first compound 0.316 µM
[4] = second compound 0.1 µM, first compound 1 µM
[5] = second compound 0.1 µM, first compound 3.16 µM
[6] = second compound 0.1 µM, first compound 10 µM
[7] = second compound 0.316 µM, first compound 0.0316 µM
[8] = second compound 0.316 µM, first compound 0.1 µM
[9] = second compound 0.316 µM, first compound 0.316 µM
[10] = second compound 0.316 µM, first compound 1 µM
[11] = second compound 0.316 µM, first compound 3.16 µM
[12] = second compound 0.316 µM, first compound 10 µM
[13] = second compound 1 µM, first compound 0.0316 µM
[14] = second compound 1 µM, first compound 0.1 µM
[15] = second compound 1 µM, first compound 0.316 µM
[16] = second compound 1 µM, first compound 1 µM
[17] = second compound 1 µM, first compound 3.16 µM
[18] = second compound 1 µM, first compound 10 µM
[19] = second compound 3.16 µM, first compound 0.0316 µM
[20] = second compound 3.16 µM, first compound 0.1 µM
[21] = second compound 3.16 µM, first compound 0.316 µM
[22] = second compound 3.16 µM, first compound 1 µM
[23] = second compound 3.16 µM, first compound 3.16 µM
[24] = second compound 3.16 µM, first compound 10 µM
[25] = second compound 10 µM, first compound 0.0316 µM
[26] = second compound 10 µM, first compound 0.1 µM
[27] = second compound 10 µM, first compound 0.316 µM
[28] = second compound 10 µM, first compound 1 µM
[29] = second compound 10 µM, first compound 3.16 µM
[30] = second compound 10 µM, first compound 10 µM
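Also: spheroids exposed to agents for seven days before reading.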

SMILES | IC50 (second compound 0.1 µM) | IC50 (second compound 0.316 µM) | IC50 (second compound 1 µM) | IC50 (second compound 3.16 µM) | IC50 (second compound 10 µM) | viability, T/C [1] | viability, T/C [2] | viability, T/C [3] | viability, T/C [4] | viability, T/C [5] | viability, T/C [6] | viability, T/C [7] | viability, T/C [8] | viability, T/C [9] | viability, T/C [13] | viability, T/C [14] | viability, T/C [19] | viability, T/C [20] | viability, T/C [25] | viability, T/C [26] | also measured
COc1ccc([C@@H](O)c2cc(-c3ncnc4cc(N5CCOCC5)ccc34)c(F)cc2Cl)nn1 + Cc1cncc(-c2nc(NCCc3c[nH]c4ccccc34)c3ncn(C(C)C)c3n2)c1 | > 10 µM | > 10 µM | > 10 µM | > 10 µM | < 0.0316 µM | 87.6% | 82.5% | 84.5% | 90.5% | 70.3% | 64.1% | 95.3% | 77.3% | 79.8% | 75.7% | 73.3% | 74.2% | 72.7% | 1.87% | 1.89% | viability, T/C [10]: 64.5%; viability, T/C [11]: 70.4%; viability, T/C [12]: 67.7%; viability, T/C [15]: 65.7%; viability, T/C [16]: 66.4%; viability, T/C [17]: 60.8%; viability, T/C [18]: 67.5%; viability, T/C [21]: 68.1%; viability, T/C [22]: 69%; viability, T/C [23]: 61.4%; viability, T/C [24]: 71.7%; viability, T/C [27]: 4.9%; viability, T/C [28]: 2.28%; viability, T/C [29]: 1.45%; viability, T/C [30]: 4.49%
O=C(c1cc(Cc2n[nH]c(=O)c3ccccc23)ccc1F)N1CCN(C(=O)C2CC2)CC1 + CC(CO)NC(=O)c1cc(-c2ccc(Cl)cc2)nn(-c2cnn(C)c2)c1=O | > 10 µM | > 10 µM | > 10 µM | > 10 µM | > 10 µM | 92.2% | 112% | 102% | 103% | 97.6% | 103% | 99.9% | 92.2% | 95.1% | 91.1% | 98.9% | 100% | 84% | 90.1% | 90% | viability, T/C [10]: 102%; viability, T/C [11]: 91.2%; viability, T/C [12]: 104%; viability, T/C [15]: 102%; viability, T/C [16]: 101%; viability, T/C [17]: 89.2%; viability, T/C [18]: 109%; viability, T/C [21]: 105%; viability, T/C [22]: 87.6%; viability, T/C [23]: 94.9%; viability, T/C [24]: 89.7%; viability, T/C [27]: 80.8%; viability, T/C [28]: 85%; viability, T/C [29]: 85.5%; viability, T/C [30]: 67.5%
Cn1ncnc1C1c2n[nH]c(=O)c3cc(F)cc(c23)NC1c1ccc(F)cc1 (stereo not given) + Cc1cncc(-c2nc(NCCc3c[nH]c4ccccc34)c3ncn(C(C)C)c3n2)c1 | > 0.1 µM | > 0.1 µM | > 0.1 µM | > 0.1 µM | < 0.000316 µM | 88.7% | 101% | – | – | – | – | 78.3% | 96.2% | – | 76.5% | 91.4% | 76.1% | 71.3% | 14.8% | 18.6% | viability, T/C (second compound 0.1 µM, first compound 0.000316 µM): 93.4%; viability, T/C (second compound 0.1 µM, first compound 0.001 µM): 97.3%; viability, T/C (second compound 0.1 µM, first compound 0.00316 µM): 109%; viability, T/C (second compound 0.1 µM, first compound 0.01 µM): 108%; viability, T/C (second compound 0.316 µM, first compound 0.000316 µM): 88.7%; viability, T/C (second compound 0.316 µM, first compound 0.001 µM): 81.3%; viability, T/C (second compound 0.316 µM, first compound 0.00316 µM): 93.5%; viability, T/C (second compound 0.316 µM, first compound 0.01 µM): 87.3%; viability, T/C (second compound 1 µM, first compound 0.000316 µM): 79.4%; viability, T/C (second compound 1 µM, first compound 0.001 µM): 75.9%; viability, T/C (second compound 1 µM, first compound 0.00316 µM): 78.8%; viability, T/C (second compound 1 µM, first compound 0.01 µM): 78%; viability, T/C (second compound 3.16 µM, first compound 0.000316 µM): 84.4%; viability, T/C (second compound 3.16 µM, first compound 0.001 µM): 81.2%; viability, T/C (second compound 3.16 µM, first compound 0.00316 µM): 73.2%; viability, T/C (second compound 3.16 µM, first compound 0.01 µM): 66.6%; viability, T/C (second compound 10 µM, first compound 0.000316 µM): 23.2%; viability, T/C (second compound 10 µM, first compound 0.001 µM): 13.3%; viability, T/C (second compound 10 µM, first compound 0.00316 µM): 23.2%; viability, T/C (second compound 10 µM, first compound 0.01 µM): 26.1%
